Values after ≈ are worked out from the molar mass of the structure shown. Where two headings read alike, the source gives them in different places.
Columns and labels:
[1] = Aqueous kinetic solubility in PBS buffer; assay type: physicochemical
Method: (§1) The rat liver microsomal stability, parallel artificial membrane permeability assay (PAMPA), and aqueous kinetic solubility assay in phosphate-buffered saline (PBS) buffer were performed as described in the indicated references.

[2] = Rat liver microsomal stability; assay type: in vitro ADME; settings: for half-life: SD, rat, liver microsomes, read-out: Rat_SD/Microsomes t1/2 (m)
Method: as §1

Bovine Xanthine Oxidase = molecular target: T1, Bovine Xanthine Oxidase (Bos taurus, UniProt P80457); experiment: Xanthine oxidase / hypoxanthine luminol chemiluminescence assay; assay type: biochemical; settings: xanthine oxidase with hypoxanthine; mean ± SD, n in cell; read-out: X/XO IC50
T1 construct: purchased Sigma
Method: Bovine Xanthine Oxidase (Sigma) was dialyzed in PBS to remove ammonium sulfate and stored at 4 °C. Hypoxanthine was prepared by heating in DMSO. Reactions were prepared by diluting xanthine oxidase in HBSS (final concentration 1.25 mU/mL) that contained 50 μM luminol and were preincubated 5 min with control or inhibitor before the addition of hypoxanthine at a final concentration of 0.5 mM. Luminescence was measured at 24 °C as described above.

NOX2 [3] = settings: read-out: IC50 for NOX2, originally reported; cited from earlier work
[4] = Parallel artificial membrane permeability assay (PAMPA); assay type: in vitro ADME; settings: for Papp: pH 7.4, PAMPA, pH7.4, read-out: Permeability(pH7.4) (PAMPA_Pion_Lipid 1e-6 cm/s)
Method: as §1

NOX2 [5] = molecular target: T2, NOX2 (Mus musculus, UniProt Q61093); experiment: NOX2 activity in primary mouse neutrophils enriched from bone marrow; assay type: cell-based; settings: SD, n = 8 mice
T2 construct: relative potencies in primary mouse neutrophils enriched from bone marrow; endogenous in cells; host or cells: primary mouse bone-marrow granulocytes
T2 sequence (Q61093 2-570 limits assumed): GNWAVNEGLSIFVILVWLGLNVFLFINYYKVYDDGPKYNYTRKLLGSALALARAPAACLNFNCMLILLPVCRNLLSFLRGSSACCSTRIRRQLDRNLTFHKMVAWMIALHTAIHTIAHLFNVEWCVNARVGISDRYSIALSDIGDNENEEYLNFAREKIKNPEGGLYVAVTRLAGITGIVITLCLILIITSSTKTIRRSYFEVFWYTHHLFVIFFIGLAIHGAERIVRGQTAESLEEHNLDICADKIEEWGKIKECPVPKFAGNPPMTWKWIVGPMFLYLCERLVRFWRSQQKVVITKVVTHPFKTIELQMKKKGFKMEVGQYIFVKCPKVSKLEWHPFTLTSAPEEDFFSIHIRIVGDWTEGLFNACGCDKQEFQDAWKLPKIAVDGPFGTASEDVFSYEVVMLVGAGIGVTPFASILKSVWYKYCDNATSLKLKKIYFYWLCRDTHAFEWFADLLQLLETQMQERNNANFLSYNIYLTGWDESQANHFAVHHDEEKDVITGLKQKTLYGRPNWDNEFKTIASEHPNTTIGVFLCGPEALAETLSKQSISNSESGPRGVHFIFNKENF
T2 sequence (Q61462 2-192 partner limits assumed): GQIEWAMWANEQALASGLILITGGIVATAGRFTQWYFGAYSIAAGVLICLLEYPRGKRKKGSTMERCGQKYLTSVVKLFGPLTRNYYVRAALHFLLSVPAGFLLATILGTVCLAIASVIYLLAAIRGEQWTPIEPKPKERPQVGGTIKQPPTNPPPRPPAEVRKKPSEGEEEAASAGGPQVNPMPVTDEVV
Method: (§2) Human blood was obtained after informed consent by the Department of Transfusion Medicine (NIH Clinical Center) and provided as de-identified specimens. Human granulocytes were isolated using Percoll density fractionation as described and NOX2 activity was assessed in white polypropylene flat bottom 96 well plates following 15 min of preincubation at 37 °C with compounds or vehicle controls using 50 μM luminol as a chemiluminescence enhancer in an assay volume of 100 μl RPMI1640 with 1.1 × 10^5 cells/well in Varioskan Lux luminometer for 30 cycles of 1 s per well (approximately 1 h).
Mouse granulocytes were isolated from bone marrow essentially as described except bones were not sterilized in ethanol and marrow was not flushed through a 100 μm strainer. Furthermore, RPMI1640 was supplemented with 10% FBS, 2 mM EDTA, and 25 mM HEPES buffer and penicillin/streptomycin was omitted. Polymorphonuclear leukocytes (PMN) concentration and purity (>90% granulocytes) were assessed microscopically using 3% acetic acid and a hemacytometer. NOX2 activity was assessed as described above with human granulocytes.

NOX1-NOX5 = experiment: Expi293 whole cell assays, comparison across panel of NOX family members; assay type: cell-based, human
Method: Given concerns about previous assays for specific NOX family members we here report the first use of the Expi293 Expression System (Thermo Scientific) to overexpress NOX1, 2, 3, 4, and 5 in excess of any endogenous NOX proteins present in these cells. Transfections were performed following the manufacturer's instructions using the plasmids for each NOX as described in Supplemental Table 2 except that the enhancer solution provided with the Expi293 system was not used because it promoted enzyme activation.
After the times indicated in Supplemental Table 2, cells were washed and 50,000 added per well of a white 96-well plate (Greiner) along with 50 μM Luminol and 2.5 U horseradish peroxidase/mL in a volume of 90 μl for NOX1, NOX2, and NOX5. Inhibitors or vehicle controls were added and cells were incubated for 20 min at 37 °C prior to activation with the indicated stimuli. For NOX3 and NOX4 (constitutively active), cells were incubated with inhibitor or vehicle control prior to the addition of luminol and HRP. Chemiluminescence was measured every 2 min for 1 s per well at 37 °C in a Varioscan Multimode reader. AUC data were analyzed using GraphPad Prism using non-linear regression analysis after expressing relative to control alone (maximum ROS production).

xanthine oxidase = settings: cited from earlier work
NOX2 [6] = molecular target: T3, NOX2 (Homo sapiens, UniProt P04839); experiment: NOX2 activity in primary human granulocytes (PMN), luminol chemiluminescence; assay type: cell-based; parameters: When tested against NOX2 in primary human neutrophils; endogenous in cells; host or cells: primary human granulocytes (PMN) from donor blood; settings: mean ± SD, n in cell; read-out: NOX-2 IC50 from PMN
T3 sequence (P04839 2-570 limits assumed): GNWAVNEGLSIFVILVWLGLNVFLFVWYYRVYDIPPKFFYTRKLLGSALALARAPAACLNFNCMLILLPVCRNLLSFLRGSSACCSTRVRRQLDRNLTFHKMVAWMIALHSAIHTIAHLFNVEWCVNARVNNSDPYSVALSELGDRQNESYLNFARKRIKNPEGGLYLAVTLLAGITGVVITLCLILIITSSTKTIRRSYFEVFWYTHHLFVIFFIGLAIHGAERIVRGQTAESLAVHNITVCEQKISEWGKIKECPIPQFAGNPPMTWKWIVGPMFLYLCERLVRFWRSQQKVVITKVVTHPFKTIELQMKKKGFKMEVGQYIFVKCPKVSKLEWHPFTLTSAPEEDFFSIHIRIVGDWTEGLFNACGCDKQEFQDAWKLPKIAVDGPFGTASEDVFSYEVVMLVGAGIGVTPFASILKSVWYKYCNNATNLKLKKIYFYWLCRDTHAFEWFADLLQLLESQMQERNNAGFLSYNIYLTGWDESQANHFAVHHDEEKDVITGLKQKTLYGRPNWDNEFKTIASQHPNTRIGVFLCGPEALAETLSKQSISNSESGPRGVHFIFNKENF
T3 sequence (P13498 2-195 partner limits assumed): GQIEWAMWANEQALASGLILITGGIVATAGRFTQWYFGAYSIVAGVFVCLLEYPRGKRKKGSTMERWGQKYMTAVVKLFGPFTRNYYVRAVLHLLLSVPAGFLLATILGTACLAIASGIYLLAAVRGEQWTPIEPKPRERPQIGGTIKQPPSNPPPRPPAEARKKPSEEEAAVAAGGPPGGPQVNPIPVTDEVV
Method: as §2

[7] = aqueous buffer, kinetic from dmso stock, read-out: Solubility

T1 sequence (P80457 whole entry): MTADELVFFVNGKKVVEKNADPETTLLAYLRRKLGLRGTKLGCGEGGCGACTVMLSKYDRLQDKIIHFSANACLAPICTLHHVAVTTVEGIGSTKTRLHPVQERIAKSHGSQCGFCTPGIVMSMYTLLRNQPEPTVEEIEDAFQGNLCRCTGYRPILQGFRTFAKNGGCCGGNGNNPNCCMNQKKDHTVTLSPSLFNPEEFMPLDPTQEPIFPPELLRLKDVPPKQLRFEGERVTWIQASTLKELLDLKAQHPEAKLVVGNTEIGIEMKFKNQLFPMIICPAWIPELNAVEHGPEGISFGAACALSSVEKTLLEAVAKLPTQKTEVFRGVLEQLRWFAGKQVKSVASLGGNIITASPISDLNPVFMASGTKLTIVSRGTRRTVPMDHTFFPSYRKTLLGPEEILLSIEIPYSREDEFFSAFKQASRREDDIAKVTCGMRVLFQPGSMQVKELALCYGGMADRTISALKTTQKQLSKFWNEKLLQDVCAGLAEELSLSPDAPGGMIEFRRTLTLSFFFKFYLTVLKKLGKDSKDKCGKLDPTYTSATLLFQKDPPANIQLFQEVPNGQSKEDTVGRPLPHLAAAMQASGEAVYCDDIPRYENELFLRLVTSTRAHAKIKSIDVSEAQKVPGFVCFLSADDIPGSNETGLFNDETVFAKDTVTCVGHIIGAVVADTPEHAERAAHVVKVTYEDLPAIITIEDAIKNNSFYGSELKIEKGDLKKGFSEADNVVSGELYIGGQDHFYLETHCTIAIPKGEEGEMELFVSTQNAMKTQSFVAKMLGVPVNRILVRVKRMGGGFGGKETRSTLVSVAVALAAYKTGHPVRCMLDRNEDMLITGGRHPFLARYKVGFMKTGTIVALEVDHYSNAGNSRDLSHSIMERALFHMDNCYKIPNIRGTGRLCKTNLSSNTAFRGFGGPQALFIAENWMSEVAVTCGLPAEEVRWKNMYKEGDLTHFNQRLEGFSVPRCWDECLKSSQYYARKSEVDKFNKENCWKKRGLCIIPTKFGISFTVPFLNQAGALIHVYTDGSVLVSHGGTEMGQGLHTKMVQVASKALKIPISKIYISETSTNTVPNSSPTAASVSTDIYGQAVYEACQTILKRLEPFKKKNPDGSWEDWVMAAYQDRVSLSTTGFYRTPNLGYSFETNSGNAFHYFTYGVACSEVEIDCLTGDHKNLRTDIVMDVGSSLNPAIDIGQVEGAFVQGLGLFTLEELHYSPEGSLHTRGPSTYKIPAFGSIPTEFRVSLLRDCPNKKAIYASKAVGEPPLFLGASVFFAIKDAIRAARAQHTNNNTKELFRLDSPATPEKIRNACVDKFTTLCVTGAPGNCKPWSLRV

| SMILES | solubility [1] | Rat_SD/Microsomes t1/2 (m) [2] | IC50 (Bovine Xanthine Oxidase) | Permeability(pH7.4) (PAMPA_Pion_Lipid 1e-6 cm/s) [4] | IC50 (NOX2 [5]) | solubility [1, 7] | half-life [2] | Papp [4] | IC50 (NOX2 [6]) | IC50 (NOX2 [3]) | differences in activity across the panel of NOX family members (NOX1-NOX5) | greater concentrations required to inhibit xanthine oxidase than NOX2 (xanthine oxidase) |
| --- | --- | --- | --- | --- | --- | --- | --- | --- | --- | --- | --- | --- |
| CC(C)n1cc(-c2ccc3c(c2)N(C)CC3)c2c(NS(=O)(=O)c3ccn(C)n3)ccnc21 [GSK2795039, reference compound] | 36.7 µg/mL (≈ 81.5 µM) | 1.02 m | […] | […] | 2.17 ± 1.11 µM |  |  |  |  | […] | unable to demonstrate significant differences in activity | […] |
| Cn1ccc([S+](=O)([O-])Nc2ccnc3c2c(-c2ccc4c(c2)N(C2CC2)C(=O)C42CC2)cn3C2CC2)n1 [NCGC00650040, CN1C=CC(=N1)[S+]([O-])(=O)NC2=C3C(=CN(C4CC4)C3=NC=C2)C5=CC6=C(C=C5)C7(CC7)C(=O)N6C8CC8] |  |  | 4.21 ± 0.55 µM |  |  | 22.9 µg/mL (≈ 44.5 µM) | > 30 min | 249 ×10⁻⁶ cm/s | 15.2 µM |  |  |  |
| Cn1ccc([S+](=O)([O-])Nc2ccnc3c2c(-c2ccc4c(c2)N(C2CC2)CC4)cn3CC2CC2)n1 [NCGC00650063, CN1C=CC(=N1)[S+]([O-])(=O)NC2=C3C(=CN(CC4CC4)C3=NC=C2)C5=CC6=C(CCN6C7CC7)C=C5] |  |  | 0.36 ± 0.51 µM |  |  | 1.4 µg/mL (≈ 2.87 µM) | 1.1 min | 1230 ×10⁻⁶ cm/s | 3.02 ± 2.96 µM |  |  |  |

The next lines start with results.

| solubility [1] | Rat_SD/Microsomes t1/2 (m) [2] | IC50 (Bovine Xanthine Oxidase) | Permeability(pH7.4) (PAMPA_Pion_Lipid 1e-6 cm/s) [4] | IC50 (NOX2 [5]) | solubility [1, 7] | half-life [2] | Papp [4] | IC50 (NOX2 [6]) | SMILES | IC50 (NOX2 [3]) | differences in activity across the panel of NOX family members (NOX1-NOX5) | greater concentrations required to inhibit xanthine oxidase than NOX2 (xanthine oxidase) |
| --- | --- | --- | --- | --- | --- | --- | --- | --- | --- | --- | --- | --- |
|  |  | 3.2 µM |  |  | 39.7 µg/mL (≈ 83.3 µM) | 14 min | 293 ×10⁻⁶ cm/s | 0.0555 µM | CN(C)C1CCc2ccc(-c3cn(C4CC4)c4nccc(N[S+](=O)([O-])c5ccn(C)n5)c34)cc21 (centres unmarked) [NCGC00650075, CN(C)C1CCC2=C1C=C(C=C2)C3=CN(C4CC4)C5=NC=CC(N[S+]([O-])(=O)C6=NN(C)C=C6)=C35] |  |  |  |
|  |  | > 20 µM |  |  | 24 µg/mL (≈ 53.5 µM) | 14.5 min | 13 ×10⁻⁶ cm/s | 0.447 µM | Cn1ccc([S+](=O)([O-])Nc2ccnc3c2c(-c2ccc4c(c2)C(N)CC4)cn3C2CC2)n1 (centres unmarked) [NCGC00650025, CN1C=CC(=N1)[S+]([O-])(=O)NC2=C3C(=CN(C4CC4)C3=NC=C2)C5=CC6=C(CCC6N)C=C5] |  |  |  |
| 38.6 µg/mL (≈ 86.3 µM) | 17.3 m | 3.11 µM | 88.1 1e-6 cm/s |  |  |  |  | > 20 µM | Cn1ccc([S+](=O)([O-])Nc2ccnc3c2c(-c2ccc4c(c2)C(=O)CC4)cn3C2CC2)n1 [NCGC00650062, CN1C=CC(=N1)[S+]([O-])(=O)NC2=C3C(=CN(C4CC4)C3=NC=C2)C5=CC6=C(CCC6=O)C=C5] |  |  |  |
|  |  | 7.52 ± 10.5 µM |  |  | > 64 µg/mL | 4.5 min | 191 ×10⁻⁶ cm/s | 1.53 ± 1.36 µM | Cn1ccc([S+](=O)([O-])Nc2ccnc3c2c(-c2ccc4c(c2)NCC4)cn3C2CC2)n1 [NCGC00601851, CN1C=CC(=N1)[S+]([O-])(=O)NC2=C3C(=CN(C4CC4)C3=NC=C2)C5=CC6=C(CCN6)C=C5] |  |  |  |
